Results reported in patent US9296698B2, “Amino heteroaryl compounds as beta-secretase modulators and methods of use” (Amgen Inc., priority 2009, dated 2016).
Read-outs that look alike come from different tables or passages of the source.

How the values were obtained:
[1] = test system: Aβ40 in conditioned medium of cells stably expressing Amyloid Precursor Protein (APP); assay: In vitro BACE cell-based assay (HEK cell assay), Aβ40 sandwich ELISA
Outline: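 Cells stably expressing APP received 10-point compound dilutions (top 100 μM or 10 μM; 0.1% DMSO) for 24 h. Secreted Aβ40 was quantified by sandwich ELISA (pAb40 capture, biotinylated 6E10 detection, europium time-resolved fluorescence). IC50 was derived from percent inhibition versus concentration.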

[2] = target: BACE 1 (Beta Secretase enzyme) (Homo sapiens, UniProt P56817); assay: In vitro enzymatic BACE FRET assay; assay type: biochemical
Outline: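 BACE activity read by FRET: peptide substrate (50 nM) carrying fluorophore and quencher across the cleavage site, incubated one hour in 0.05 M acetate pH 4.2, 10% DMSO final, 100 uM genapol. Tris addition raises pH to neutrality to stop the reaction before fluorescence is read.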

[3] = Homo sapiens, HEK293, 24 h, IC50 range symbols, Table 1, Aβ40, 24 h incubation, read-out: HEK cell assay
[4] = IC50 range symbols, Table 1, read-out: BACE 1 FRET assay
[5] = IC50 range symbols, Table 1, Aβ40, 24 h incubation, read-out: HEK cell assay
[6] = Homo sapiens, HEK293, bound stated in text, read-out: IC50 value in the BACE cell-based in-vitro assay
[7] = bound stated, read-out: IC50 value in the FRET BACE enzyme assay

Sequence of BACE 1 (Beta Secretase enzyme) (P56817 46-501, species assumed): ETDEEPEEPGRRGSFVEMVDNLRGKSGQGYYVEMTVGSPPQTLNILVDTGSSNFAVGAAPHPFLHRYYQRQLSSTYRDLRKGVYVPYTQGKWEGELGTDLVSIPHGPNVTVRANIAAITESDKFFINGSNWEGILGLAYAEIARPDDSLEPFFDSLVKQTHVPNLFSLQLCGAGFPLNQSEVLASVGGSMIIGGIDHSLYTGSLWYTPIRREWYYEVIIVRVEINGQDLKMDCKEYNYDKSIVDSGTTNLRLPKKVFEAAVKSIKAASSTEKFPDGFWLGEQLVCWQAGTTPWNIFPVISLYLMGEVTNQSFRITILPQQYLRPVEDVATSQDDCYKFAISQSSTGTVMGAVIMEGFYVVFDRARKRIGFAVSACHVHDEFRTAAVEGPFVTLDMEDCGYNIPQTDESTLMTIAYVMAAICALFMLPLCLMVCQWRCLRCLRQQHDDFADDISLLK

| Compound | IC50 [1, 3] [nM] | IC50 [2, 4] [nM] | IC50 [1, 5] [nM] | IC50 [1, 6] [nM] | IC50 [2, 7] [nM] |
| --- | --- | --- | --- | --- | --- |
| COc1ccccc1[C@@H](C)NC(=O)C(C)Cc1cc2cc(-c3ccccc3C)ccc2nc1N (stereo partly drawn) [Example 76, 3-(2-amino-6-o-tolylquinolin-3-yl)-N-((R)-1-(2-methoxyphenyl)ethyl)-2-methylpropanamide] | 1000 to 5000 | < 500 |  |  |  |
| 3-(3-amino-7-o-tolylnaphthalen-2-yl)-N-((R)-1-cyclohexylethyl)propanamide [Example 31] |  | < 500 | > 5000 |  |  |
| COc1ccccc1-c1ccc2nc(N)c(CCC(=O)NCC3CCCCC3)cc2c1 [Example 44, 3-(2-amino-6-(2-methoxyphenyl)quinolin-3-yl)-N-(cyclohexylmethyl)propanamide] | 1000 to 5000 | < 500 |  |  |  |
| Cc1ccccc1-c1ccc2nc(N)c(CCC(=O)NCC3CCOCC3)cc2c1 [Example 19, 3-(2-amino-6-o-tolylquinolin-3-yl)-N-((tetrahydro-2H-pyran-4-yl)methyl)propanamide] | 1000 to 5000 | < 500 |  |  |  |
| Cc1ccccc1-c1ccc2nc(N)c(C[C@@H](C)C(=O)NC3C[C@@H](C)O[C@@H](C)C3)cc2c1 (stereo partly drawn) [Example 12, (2R)-3-(2-amino-6-o-tolylquinolin-3-yl)-N-(cis-2,6-dimethyltetrahydro-2H-pyran-4-yl)-2-methylpropanamide] | < 500 | < 500 |  | < 100 | < 50 |
| Cc1cccc(C(=O)N2CCCC2)c1-c1ccc2nc(N)c(CC(C)C(=O)NCc3ccccn3)cc2c1 (stereo not shown) [Example 149, 3-(2-amino-6-(2-methyl-6-(pyrrolidine-1-carbonyl)phenyl)quinolin-3-yl)-2-methyl-N-(pyridin-2-ylmethyl)propanamide] | < 500 | < 500 |  |  |  |
| Cc1ccccc1-c1ccc2nc(N)c(CCC(=O)NCC(C)(C)O)cc2c1 [Example 144, 3-(2-amino-6-(2-methylphenyl)-3-quinolinyl)-N-(2-hydroxy-2-methylpropyl)propanamide] | 1000 to 5000 | 1000 to 5000 |  |  |  |
| CC(Cc1cc2cc(-c3ccc(F)cc3)ccc2nc1N)C(=O)NC1CCOC(C)(C)C1 (stereo not shown) [Example 167, 3-(2-amino-6-(4-fluorophenyl)-3-quinolinyl)-N-(2,2-dimethyltetrahydro-2H-pyran-4-yl)-2-methylpropanamide] | > 5000 | 1000 to 5000 |  |  |  |
| Cc1ccccc1-c1ccc2nc(N)c(CCC(=O)NCC3CCCO3)cc2c1 (stereo not shown) [Example 17, 3-(2-amino-6-o-tolylquinolin-3-yl)-N-((tetrahydrofuran-2-yl)methyl)propanamide] | > 5000 | < 500 |  |  |  |
| CCC(Cc1cc2cc(-c3ccccc3C)ccc2nc1N)C(=O)Nc1ccccc1F (stereo not shown) [Example 50, 2-((2-amino-6-o-tolylquinolin-3-yl)methyl)-N-(2-fluorophenyl)butanamide] | > 5000 | < 500 |  |  |  |
| Cc1ccccc1-c1ccc2nc(N)c(CC(C)C(=O)NC3CCCN(C)C3)cc2c1 (stereo not shown) [Example 64, 3-(2-amino-6-o-tolylquinolin-3-yl)-2-methyl-N-(1-methylpiperidin-3-yl)propanamide] | < 500 | < 500 |  |  |  |
| CC(Cc1cc2cc(-c3cccc(Cl)c3)ccc2nc1N)C(=O)NC1CCOC(C)(C)C1 (stereo not shown) [Example 169, 3-(2-amino-6-(3-chlorophenyl)-3-quinolinyl)-N-(2,2-dimethyltetrahydro-2H-pyran-4-yl)-2-methylpropanamide] | < 500 | < 500 |  | < 100 |  |
| Cc1ccccc1-c1ccc2nc(N)c(CC(C)C(=O)NCC3CCCOC3)cc2c1 (stereo not shown) [Example 92, 3-(2-amino-6-o-tolylquinolin-3-yl)-2-methyl-N-((tetrahydro-2H-pyran-3-yl)methyl)propanamide] | < 500 | < 500 |  |  |  |
| CC(Cc1cc2cc([C@H]3C[C@H]3C)ccc2nc1N)C(=O)NCCC(C)(C)C (stereo partly drawn) [Example 121, 3-(2-amino-6-((1S,2R)-2-methylcyclopropyl)quinolin-3-yl)-N-(3,3-dimethylbutyl)-2-methylpropanamide] | > 5000 | 500 to 1000 |  |  |  |
| COc1ccccc1C(C)NC(=O)C(C)Cc1cc2cc(-c3ccccc3C)ccc2nc1N (stereo not shown) [Example 104, 3-(2-amino-6-o-tolylquinolin-3-yl)-N-(1-(2-methoxyphenyl)ethyl)-2-methylpropanamide] | 1000 to 5000 | < 500 |  |  |  |
| Cc1ccccc1-c1cc2cc(CCC(=O)NCCC(C)(C)C)c(N)nc2cn1 [Example 135, 3-(2-amino-6-o-tolyl-1,7-naphthyridin-3-yl)-N-(3,3-dimethylbutyl)propanamide] | > 5000 | < 500 |  |  | < 50 |
| CC(Cc1cc2cc(-c3ccccn3)ccc2nc1N)C(=O)NCCC(C)(C)C (stereo not shown) [Example 122, 3-(2-amino-6-(pyridin-2-yl)quinolin-3-yl)-N-(3,3-dimethylbutyl)-2-methylpropanamide] | 500 to 1000 | < 500 |  |  |  |

| Compound | IC50 [1, 3] [nM] | IC50 [2, 4] [nM] | IC50 [1, 5] [nM] | IC50 [1, 6] [nM] | IC50 [2, 7] [nM] |
| --- | --- | --- | --- | --- | --- |
| Cc1ccccc1-c1cc2cc(CCC(=O)NCC3CCCCC3)c(N)nc2cc1C [Example 95, 3-(2-amino-7-methyl-6-(2-methylphenyl)-3-quinolinyl)-N-(cyclohexylmethyl)propanamide] | > 5000 | < 500 |  |  |  |
| CCC1CC1c1ccc2nc(N)c(CC(C)C(=O)NCCC(C)(C)C)cc2c1 (stereo not shown) [Example 120, 3-(2-amino-6-(2-ethylcyclopropyl)quinolin-3-yl)-N-(3,3-dimethylbutyl)-2-methylpropanamide] | > 5000 | 500 to 1000 |  |  |  |
| CNC(=O)C(C)Cc1cc2cc(-c3ccccc3C(C)=O)ccc2nc1N (stereo not shown) [Example 154, 3-(6-(2-acetylphenyl)-2-aminoquinolin-3-yl)-N,2-dimethylpropanamide] | > 5000 | > 5000 |  |  |  |
| Cc1ccc(-c2ccc3nc(N)c(CC(C)C(=O)NCC4CCCCC4)cc3c2)c(F)n1 (stereo not shown) [Example 107, 3-(2-amino-6-(2-fluoro-6-methylpyridin-3-yl)quinolin-3-yl)-N-(cyclohexylmethyl)-2-methylpropanamide] | 1000 to 5000 | 1000 to 5000 |  |  |  |
| CO[C@@H]1CCC[C@H]1NC(=O)CCc1cc2cc(-c3ccccc3C)ccc2nc1N [Example 62, 3-(2-amino-6-o-tolylquinolin-3-yl)-N-((1R,2R)-2-methoxycyclopentyl)propanamide] | 1000 to 5000 | < 500 |  |  |  |
| Cc1ccccc1-c1ccc2nc(N)c(CCC(=O)NC3CCOC(C)(C)C3)cc2c1 (stereo not shown) [Example 163, 3-(2-amino-6-(2-methylphenyl)-3-quinolinyl)-N-(-2,2-dimethyltetrahydro-2H-pyran-4-yl)propanamide] | < 500 | < 500 |  | < 100 |  |
| Cc1ccc(CNC(=O)CCc2cc3cc(-c4ccccc4C)ccc3nc2N)c(F)c1 [Example 68, N-(2-fluoro-4-methylbenzyl)-3-(2-amino-6-o-tolylquinolin-3-yl)propanamide] | > 5000 | 1000 to 5000 |  |  |  |
| Cc1ccccc1-c1ccc2nc(N)c(CCC(=O)NCc3ccccc3)cc2c1 [Example 23, 3-(2-amino-6-o-tolylquinolin-3-yl)-N-benzylpropanamide] | < 500 | < 500 |  |  |  |
| CC(Cc1cc2cc(-c3ncccc3CCN3CCN(C)CC3)ccc2nc1N)C(=O)NCCC(C)(C)C (stereo not shown) [Example 124, 3-(2-amino-6-(3-(2-(4-methylpiperazin-1-yl)ethyl)pyridin-2-yl)quinolin-3-yl)-N-(3,3-dimethylbutyl)-2-methylpropanamide] | < 500 | 500 to 1000 |  |  |  |
| Cc1ccccc1-c1ccc2nc(N)c(C(C)CC(=O)NCC3CCCCC3)cc2c1 (stereo not shown) [Example 6, 3-(2-amino-6-o-tolylquinolin-3-yl)-N-(cyclohexylmethyl)butanamide] | > 5000 | < 500 |  |  |  |
| 3-(3-amino-7-o-tolylnaphthalen-2-yl)-N-(2-methoxybutyl)propanamide [Example 26] |  | < 500 | 1000 to 5000 |  |  |
| Cc1ccccc1-c1ccc2nc(N)c(CC(C)C(=O)NC(C)c3ccccc3F)cc2c1 (stereo not shown) [Example 106, 3-(2-amino-6-o-tolylquinolin-3-yl)-N-(1-(2-fluorophenyl)ethyl)-2-methylpropanamide] | > 5000 | < 500 |  |  | < 50 |
| Cc1ccccc1-c1cc2cc(CC(C)C(=O)NCCC(C)(C)C)c(N)nc2cn1 (stereo not shown) [Example 138, 3-(2-amino-6-o-tolyl-1,7-naphthyridin-3-yl)-N-(3,3-dimethylbutyl)-2-methylpropanamide] | < 500 | < 500 |  |  | < 50 |
| 3-(3-amino-7-o-tolylnaphthalen-2-yl)-N-((R)-1-(2-fluorophenyl)ethyl)propanamide [Example 55] |  | < 500 | 1000 to 5000 |  |  |
| Cc1ccccc1-c1ccc2nc(N)c(CCC(=O)N[C@H](C)c3cccnc3)cc2c1 [Example 131, (R)-3-(2-amino-6-o-tolylquinolin-3-yl)-N-(1-(pyridin-3-yl)ethyl)propanamide] |  | < 500 | 1000 to 5000 |  |  |
| CC(Cc1cc2cc(-c3cccc(Cl)c3)ccc2nc1N)C(=O)NC1CCOC2(CCC2)C1 (stereo not shown) [Example 11, 3-(2-amino-6-(3-chlorophenyl)-3-quinolinyl)-2-methyl-N-(5-oxaspiro[3,5]non-8-yl)propanamide] | < 500 | < 500 |  |  | < 50 |
| CC(Cc1cc2cc(-c3ccc(F)cc3Cl)ccc2nc1N)C(=O)NC1CCOC(C)(C)C1 (stereo not shown) [Example 166, 3-(2-amino-6-(2-chloro-4-fluorophenyl)-3-quinolinyl)-N-(2,2-dimethyltetrahydro-2H-pyran-4-yl)-2-methylpropanamide] | 1000 to 5000 | < 500 |  |  |  |
